The values below come from patent US20240059703A1 (AMGEN INC., priority 2021, published 2024).

Chain of KRAS G12C (P01116 other isoform, or with tags, fused parts or gaps G12C/C118A): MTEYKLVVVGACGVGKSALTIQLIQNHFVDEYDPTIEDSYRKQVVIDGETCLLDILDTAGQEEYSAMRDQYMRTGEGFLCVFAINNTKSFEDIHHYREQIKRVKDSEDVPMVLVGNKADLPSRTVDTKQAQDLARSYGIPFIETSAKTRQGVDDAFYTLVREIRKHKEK

The experiment deals with KRAS G12C (Homo sapiens (Human), UniProt P01116, C118A/G12C). Put plainly: 2 h coupled exchange assay. Format: biochemical. Particulars: Avg 2 h Coupled exchange IC50, 2 h compound pre-incubation, SOS-mediated nucleotide exchange. As for the experimental part:
The term “2 h coupled exchange assay” or “20 h coupled exchange assay” as used herein refers to the assay described in the Section entitled “BIOLOGICAL EVALUATION.”
As for `C=CC(=O)N1CC2(CCN(c3nc4c(c(-c5cc(CO)ccc5Cl)c3C#N)C[C@H]3C[C@@H]4C3(C)C)C2)C1` [Example 2-65, (1R,9R)-6-(2-chloro-5-(hydroxymethyl)phenyl)-10,10-dimethyl-4-(2-(2-propenoyl)-2,6-diazaspiro[3.4]octan-6-yl)-3-azatricyclo[7.1.1.0^2,7]undeca-2,4,6-triene-5-carbonitrile], the IC50 came to 735 nM. Then `C=CC(=O)N1CC2(CCN(c3nc4c(c(-c5cccc(F)c5O)c3C#N)C[C@H]3C[C@@H]4C3(C)C)C2)C1` [Example 2-70, (1R,9R)-6-(3-fluoro-2-hydroxyphenyl)-10,10-dimethyl-4-(2-(2-propenoyl)-2,6-diazaspiro[3.4]octan-6-yl)-3-azatricyclo[7.1.1.0^2,7]undeca-2,4,6-triene-5-carbonitrile], with 1340 nM; and `C=CC(=O)N1CC2(CCN(c3nc4c(c(-c5cccc6c(O)cccc56)c3C)COC(C)(C)C4)C2)C1` [Example 2-82, 1-(6-(4-(5-hydroxy-1-naphthalenyl)-3,7,7-trimethyl-7,8-dihydro-5H-pyrano[4,3-b]pyridin-2-yl)-2,6-diazaspiro[3,4]octan-2-yl)-2-propen-1-one], with 641 nM; and `C=CC(=O)N1CC2(CCN(c3nc4c(c(-c5c(C)ccc6cnn(C)c56)c3Cl)COC(C)(C)C4)C2)C1` [Example 2-86, 1-(6-(3-chloro-4-(1,6-dimethyl-1H-indazol-7-yl)-7,7-dimethyl-7,8-dihydro-5H-pyrano[4,3-b]pyridin-2-yl)-2,6-diazaspiro[3.4]octan-2-yl)-2-propen-1-one], with 6150 nM. Under `C=CC(=O)N1CC2(CCN(c3nc4c(c(-c5c(C)c(Cl)cc6[nH]ncc56)c3Cl)COC(C)(C)C4)C2)C1` [Example 2-92, 1-(6-(3-chloro-4-(6-chloro-5-methyl-1H-indazol-4-yl)-7,7-dimethyl-7,8-dihydro-5H-pyrano[4,3-b]pyridin-2-yl)-2,6-diazaspiro[3.4]octan-2-yl)-2-propen-1-one] stands 21 nM; under `Cc1ccc2[nH]ncc2c1-c1c(C#N)c(N2CCC3(CN(C(=O)/C=C/CN(C)C)C3)C2)cc2c1COCC2` [Example 2-94, 6-(2-((2E)-4-(dimethylamino)-2-butenoyl)-2,6-diazaspiro[3.4]octan-6-yl)-8-(5-methyl-1H-indazol-4-yl)-3,4-dihydro-1H-2-benzopyran-7-carbonitrile], 610 nM. Under `C=CC(=O)N1CC2(CCN(c3cc4c(c(-c5c(C)ccc6cnn(C)c56)c3Cl)OCCC4)C2)C1` [Example 2-102, 1-(6-(7-chloro-8-(1,6-dimethyl-1H-indazol-7-yl)-3,4-dihydro-2H-chromen-6-yl)-2,6-diazaspiro[3.4]octan-2-yl)-2-propen-1-one] stands 70 nM. For `C=CC(=O)N1CC2(CCN(c3nc4c(c(-c5cc(S(N)(=O)=O)ccc5C)c3C#N)CCC(C)(C)C4)C2)C1` [Example 2-106, 3-(3-cyano-7,7-dimethyl-2-(2-(2-propenoyl)-2,6-diazaspiro[3.4]octan-6-yl)-5,6,7,8-tetrahydro-4-quinolinyl)-4-methylbenzenesulfonamide], the half-maximal inhibitory concentration (IC50) was 288 nM. Compound `C=CC(=O)N1CC2(CCN(c3nc4ccccc4c(-c4c(CC)ccc5[nH]ncc45)c3C#N)C2)C1` [Example 4, 4-(5-ethyl-1H-indazol-4-yl)-2-(2-(2-propenoyl)-2,6-diazaspiro[3.4]octan-6-yl)-3-quinolinecarbonitrile] came in with an IC50 of 1050 nM. Then `C=CC(=O)N1CC2(CCN(c3nc4ccccc4c(-c4c(C)ccc5[nH]ncc45)c3C3CC3)C2)C1` [Example 6, 1-(6-(3-cyclopropyl-4-(5-methyl-1H-indazol-4-yl)quinolin-2-yl)-2,6-diazaspiro[3.4]octan-2-yl)prop-2-en-1-one], with 3500 nM. Then `C=CC(=O)N1CC2(CCN(c3nc4ccccc4c(-c4c(C)ccc5[nH]ncc45)c3C)C2)C1` [Example 8, 1-(6-(3-Methyl-4-(5-methyl-1H-indazol-4-yl)quinolin-2-yl)-2,6-diazaspiro[3.4]octan-2-yl)prop-2-en-1-one], with 1270 nM; and `C=CC(=O)N1CC2(CCN(c3nc4c(c(-c5ccc(F)c6cc[nH]c56)c3C#N)COC(C)(C)C4)C2)C1` [Example 12-3, 4-(4-fluoro-1H-indol-7-yl)-7,7-dimethyl-2-(2-(2-propenoyl)-2,6-diazaspiro[3.4]octan-6-yl)-7,8-dihydro-5H-pyrano[4,3-b]pyridine-3-carbonitrile], with 623 nM; and `C=CC(=O)N1CC2(CCN(c3nc4c(c(-c5cccc6cc(N)ccc56)c3C#N)COC(C)(C)C4)C2)C1` [Example 12-4, 4-(6-amino-1-naphthalenyl)-7,7-dimethyl-2-(2-(2-propenoyl)-2,6-diazaspiro[3.4]octan-6-yl)-7,8-dihydro-5H-pyrano[4,3-b]pyridine-3-carbonitrile], with 818 nM.

`C=CC(=O)N1CC2(CCN(c3nc4c(c(-c5ccc(Cl)c6ccn(C)c56)c3C#N)COC(C)(C)C4)C2)C1` [Example 12-5, 4-(4-chloro-1-methyl-1H-indol-7-yl)-7,7-dimethyl-2-(2-(2-propenoyl)-2,6-diazaspiro[3.4]octan-6-yl)-7,8-dihydro-5H-pyrano[4,3-b]pyridine-3-carbonitrile] gave an IC50 of 463 nM. Then `C=CC(=O)N1CC2(CCN(c3nc4c(c(-c5ccc(Cl)c6cc[nH]c56)c3C#N)COC(C)(C)C4)C2)C1` [Example 12-6, 4-(4-chloro-1H-indol-7-yl)-7,7-dimethyl-2-(2-(2-propenoyl)-2,6-diazaspiro[3.4]octan-6-yl)-7,8-dihydro-5H-pyrano[4,3-b]pyridine-3-carbonitrile], with 213 nM. Under `C=CC(=O)N1CC2(CCN(c3nc4c(c(-c5cc(Cl)cc6cc[nH]c56)c3C#N)COC(C)(C)C4)C2)C1` [Example 12-7, 4-(5-chloro-1H-indol-7-yl)-7,7-dimethyl-2-(2-(2-propenoyl)-2,6-diazaspiro[3.4]octan-6-yl)-7,8-dihydro-5H-pyrano[4,3-b]pyridine-3-carbonitrile] stands 435 nM; under `C=CC(=O)N1CC2(CCN(c3nc4c(c(-c5cc(Cl)cc6ccn(C)c56)c3C#N)COC(C)(C)C4)C2)C1` [Example 12-8, 4-(5-chloro-1-methyl-1H-indol-7-yl)-7,7-dimethyl-2-(2-(2-propenoyl)-2,6-diazaspiro[3.4]octan-6-yl)-7,8-dihydro-5H-pyrano[4,3-b]pyridine-3-carbonitrile], 399 nM; under `C=CC(=O)N1CC2(CCN(c3nc4c(c(-c5c(Cl)ccc6cc[nH]c56)c3C#N)COC(C)(C)C4)C2)C1` [Example 12-13, 4-(6-chloro-1H-indol-7-yl)-7,7-dimethyl-2-(2-(2-propenoyl)-2,6-diazaspiro[3.4]octan-6-yl)-7,8-dihydro-5H-pyrano[4,3-b]pyridine-3-carbonitrile], 252 nM. In turn, `C=CC(=O)N1CC2(CCN(c3nc4c(c(-c5c(Cl)ccc6ccn(C)c56)c3C#N)COC(C)(C)C4)C2)C1` [Example 12-14, 4-(6-chloro-1-methyl-1H-indol-7-yl)-7,7-dimethyl-2-(2-(2-propenoyl)-2,6-diazaspiro[3.4]octan-6-yl)-7,8-dihydro-5H-pyrano[4,3-b]pyridine-3-carbonitrile] returned an IC50 of 246 nM. `C=CC(=O)N1CC2(CCN(c3nc4c(c(-c5c(F)ccc6cc[nH]c56)c3C#N)C[C@H]3C[C@@H]4C3(C)C)C2)C1` [Example 12-15, (1R,9R)-6-(6-fluoro-1H-indol-7-yl)-10,10-dimethyl-4-(2-(2-propenoyl)-2,6-diazaspiro[3.4]octan-6-yl)-3-azatricyclo[7.1.1.0^2,7] undeca-2,4,6-triene-5-carbonitrile] came in with a half-inhibitory concentration (IC50) of 464 nM. Then `C=CC(=O)N1CC2(CCN(c3nc4c(c(-c5c(Cl)ccc6[nH]ccc56)c3C#N)COC(C)(C)C4)C2)C1` [Example 12-16, 4-(5-chloro-1H-indol-4-yl)-7,7-dimethyl-2-(2-(2-propenoyl)-2,6-diazaspiro[3.4]octan-6-yl)-7,8-dihydro-5H-pyrano[4,3-b]pyridine-3-carbonitrile], with 242 nM; and `C=CC(=O)N1CC2(CCN(c3nc4c(c(-c5cccc6cc(N)ncc56)c3C#N)COC(C)(C)C4)C2)C1` [Example 12-17, 4-(3-amino-8-isoquinolinyl)-7,7-dimethyl-2-(2-(2-propenoyl)-2,6-diazaspiro[3.4]octan-6-yl)-7,8-dihydro-5H-pyrano[4,3-b]pyridine-3-carbonitrile], with 132 nM; and `C=CC(=O)N1CC2(CCN(c3nc4c(c(-c5c(Cl)c(C)cc6[nH]ncc56)c3C#N)C[C@H]3C[C@@H]4C3(C)C)C2)C1` [Example 12-18, (1R,9R)-6-(5-chloro-6-methyl-1H-indazol-4-yl)-10,10-dimethyl-4-(2-(2-propenoyl)-2,6-diazaspiro[3.4]octan-6-yl)-3-azatricyclo[7.1.1.0^2,7] undeca-2,4,6-triene-5-carbonitrile], with 988 nM. Then `C=CC(=O)N1CC2(CCN(c3nc4c(c(-c5cccc6snnc56)c3C#N)COC(C)(C)C4)C2)C1` [Example 12-21, 4-(1,2,3-benzothiadiazol-4-yl)-7,7-dimethyl-2-(2-(2-propenoyl)-2,6-diazaspiro[3.4]octan-6-yl)-7,8-dihydro-5H-pyrano[4,3-b]pyridine-3-carbonitrile], with 601 nM.

Consider `C=CC(=O)N1CC2(CCN(c3nc4c(c(-c5c(C)c(C)cc6cnn(C)c56)c3C)CCN(C(C)C)C4)C2)C1` [Example 12-25, 1-(6-(3-methyl-7-(2-propanyl)-4-(1,5,6-trimethyl-1H-indazol-7-yl)-5,6,7,8-tetrahydro-1,7-naphthyridin-2-yl)-2,6-diazaspiro[3.4]octan-2-yl)-2-propen-1-one], for which half-maximal inhibition (IC50) required 141 nM. This IC50 is about 4.3-fold lower than that of the compound before. Under `C=CC(=O)N1CC2(CCN(c3nc4c(c(-c5c(C)ccc6nonc56)c3C#N)C[C@H]3C[C@@H]4C3(C)C)C2)C1` [Example 12-26, (1R,9R)-10,10-dimethyl-6-(5-methyl-2,1,3-benzoxadiazol-4-yl)-4-(2-(2-propenoyl)-2,6-diazaspiro[3.4]octan-6-yl)-3-azatricyclo[7.1.1.0^2,7] undeca-2,4,6-triene-5-carbonitrile] stands 687 nM.

The IC50 is the concentration that gives 50% inhibition. Low values mean greater potency in that assay, high ones weaker potency in that assay.
